Legend:
PDE1C = target: T1, PDE1C (Homo sapiens, UniProt Q14123); experiment: PDE enzymatic activity assay (SPA), PDE1C, cAMP as substrate; type: biochemical; details: ratio IC50 PDE1C / IC50 PDE9A; for illustrative purposes
T1 construct: made in house; host or cells: SF9 insect cells (crude lysate used as enzyme source)
Protocol: (§1) The PDE enzymatic activity assays were run as SPA, in general according to the protocol of the manufacturer (Amersham Biosciences, product number: TRKQ 7100). As enzyme source, lysate (PBS with 1% Triton X-100 supplemented with protease inhibitors, cell debris removed by centrifugation at 13.000 rpm for 30 min) of SF 9 cell expressing the human PDE of interest was used. The total protein amount included in the assay varied upon infection and production efficacy of the SF9 cells and lay in the range of […].
(§2) In general, the assay conditions were as follows: • total assay volume: 40 μl • protein amount: 0.1-50 ng • substrate concentration (cGMP or cAMP): 20 nM; ˜1 mCi/l • incubation time: 60 min at room temperature • final DMSO concentration: 1%
(§3) The assays were run in 384-well format. The test reagents as well as the enzyme and the substrate were diluted in assay buffer. The assay buffer contained 50 mM Tris, 8.3 mM MgCl2, 1.7 mM EGTA, 0.1% BSA, 0.05% Tween 20; the pH of assay buffer was adjusted to 7.5. In case activity of PDE1C was analysed, 50 nM Calmodulin and 3 mM CaCl2 were included in the assay buffer. In case PDE9 activity was analyzed, the reaction was stopped by applying a PDE9 specific inhibitor (e.g. compounds according to WO2004/099210). PDE1C was analysed with cAMP as substrate, and PDE9 was analyzed with cGMP as substrate.
(§4) IC50 can be calculated in a conventional way, eventually with the help of GraphPadPrism or other suited software setting the positive control as 100 and the negative control as 0. For calculation of IC50 usually 8 dilutions of the test compound ([…]) are to be selected and tested following the aforementioned protocol.

PDE9A [1] = target: T2, PDE9A (Homo sapiens, UniProt O76083); experiment: PDE enzymatic activity assay (SPA), PDE9A; type: biochemical; set-up: made in house; host or cells: SF9 insect cells (crude lysate used as enzyme source); details: cGMP substrate, for illustrative purposes
T2 sequence (O76083 whole entry): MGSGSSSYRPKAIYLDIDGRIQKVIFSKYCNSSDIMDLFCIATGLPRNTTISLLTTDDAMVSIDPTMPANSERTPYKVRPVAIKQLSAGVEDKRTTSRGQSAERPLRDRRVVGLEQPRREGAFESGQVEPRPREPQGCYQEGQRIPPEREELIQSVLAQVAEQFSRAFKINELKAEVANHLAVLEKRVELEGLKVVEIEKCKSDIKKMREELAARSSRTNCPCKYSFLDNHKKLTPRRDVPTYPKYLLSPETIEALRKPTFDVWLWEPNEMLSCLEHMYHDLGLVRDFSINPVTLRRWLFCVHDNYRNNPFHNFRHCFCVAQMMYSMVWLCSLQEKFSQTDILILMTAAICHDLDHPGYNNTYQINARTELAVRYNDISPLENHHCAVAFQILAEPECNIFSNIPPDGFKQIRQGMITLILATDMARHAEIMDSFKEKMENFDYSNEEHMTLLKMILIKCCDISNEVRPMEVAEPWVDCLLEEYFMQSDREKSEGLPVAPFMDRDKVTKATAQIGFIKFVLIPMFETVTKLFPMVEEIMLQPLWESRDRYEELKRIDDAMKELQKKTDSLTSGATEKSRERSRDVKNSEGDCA
Protocol: as §1, §2, §3
Calculation of % Inhibition:
The activity of the positive control (minus the negative control=background) is set to 100% and activity in the presence of test compound is expressed relative to these 100%.
Within this setting, an inhibition above 100% might be possible due to the nature of the variation of the positive control within the assay, however, in this case the reported % inhibition had been adjusted to 100%.
as §4

Murine PDE9A = target: T3, Murine PDE9A (Mus musculus, UniProt O70628); details: concentrations below 200 [mu]M; cited from earlier work
T3 sequence (O70628 1-534): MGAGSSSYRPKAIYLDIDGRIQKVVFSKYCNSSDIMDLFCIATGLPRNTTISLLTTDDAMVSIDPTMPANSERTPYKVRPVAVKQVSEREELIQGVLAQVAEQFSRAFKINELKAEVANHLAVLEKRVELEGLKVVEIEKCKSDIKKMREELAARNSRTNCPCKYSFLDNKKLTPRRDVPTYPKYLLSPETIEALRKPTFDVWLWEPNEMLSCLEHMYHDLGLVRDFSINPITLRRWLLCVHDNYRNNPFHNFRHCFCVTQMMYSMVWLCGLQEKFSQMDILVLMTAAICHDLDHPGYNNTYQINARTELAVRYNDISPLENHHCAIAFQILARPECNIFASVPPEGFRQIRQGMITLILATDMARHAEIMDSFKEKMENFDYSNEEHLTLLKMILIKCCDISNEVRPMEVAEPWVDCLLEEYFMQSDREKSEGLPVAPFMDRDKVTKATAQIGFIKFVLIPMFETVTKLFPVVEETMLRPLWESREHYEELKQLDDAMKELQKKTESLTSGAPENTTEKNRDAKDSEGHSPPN

PDE9A [2] = target: T2, PDE9A; details: concentrations of up to 100 [mu]M; cited from earlier work

| Structure (SMILES) | inhibition on the isolated enzyme (human PDE9A) (PDE9A [2]) | also measured |
| --- | --- | --- |
| O=c1[nH]c(Cc2ccccc2OC(F)(F)F)nc2c1cnn2-c1ncc(F)cc1F [Example 39, 6-(2-Trifluoromethoxy-benzyl)-1-(3,5-difluoro-pyridin-2-yl)-1,5-dihydro-pyrazolo[3,4-d]pyrimidin-4-one] | – | Selectivity = IC50 PDE 1C/IC50 PDE9A (both nanomolar) (PDE1C): 4; inhibition at 10 µM (PDE9A [1]; 10 micromolar): 97%; IC50 (PDE9A [1]; given as ranges): 0.01 to 0.5 µM |
| CC(C)Cn1c(=O)n(C)c(=O)c2[nH]cnc21 [IBMX] | no inhibition | inhibition of murine PDE9A (Murine PDE9A): not inhibited |
| CC(=O)Nc1ccc(-c2c[nH]c(=O)cn2)cc1 [SKF94120] | no inhibition | – |
| OCCN(CCO)c1nc(N2CCCCC2)c2nc(N(CCO)CCO)nc(N3CCCCC3)c2n1 [dipyridamole] | no inhibition | – |
| COc1ccc(C2CNC(=O)C2)cc1OC1CCCC1 (stereo not drawn) [rolipram] | no inhibition | – |
| CCOC(=O)C1=C[C@]2(CC)CCCN3CCc4c(n1c1ccccc41)[C@@H]32 [vinpocetine] | no inhibition | – |
